Results published in patent publication US20240140957A1, “BRIDGED COMPOUNDS AS KRAS G12D INHIBITOR AND DEGRADER AND THE USE THEREOF” (BeiGene Switzerland GmbH, priority 2021, published 2024).
pIC50: −log10 of the molar value. Where two headings read alike, the source gives them in different places.

How the values were obtained:
[1] = target: GDP-loaded KRAS G12D (Homo sapiens, UniProt P01116, G12D); test: KRAS G12D Probe Displacement Assay; type: binding
[2] = target: GDP-loaded WT KRAS (Homo sapiens, UniProt P01116); test: KRAS WT Probe Displacement Assay; type: binding
[3] = target: KRAS G12D:SOS1 (Homo sapiens, UniProt P01116, G12D); test: KRAS G12D:SOS1 GDP TR-FRET assay; type: binding; conditions: GST-KRAS G12D 37.5 nM, GDP 10 μM, His-SOS1 18 nM
[4] = target: WT KRAS:SOS1 (Homo sapiens, UniProt P01116); test: KRAS WT:SOS1 GDP TR-FRET assay; type: binding; conditions: GST-WT KRAS 37.5 nM, GDP 10 μM, His-SOS1 18 nM
[5] = tested on: pERK1/2 (THR202/TYR204) in AsPC-1 cells; test: pERK Assay (HTRF) in AsPC-1 cells; type: cell-based; conditions: Homo sapiens, ASPC1, 2 h compound treatment
[6] = target: T1, KRAS G12D protein in AsPC-1 cells (Homo sapiens, UniProt P01116, G12D); test: Western Blotting Assay in AsPC-1 cells; type: cell-based; conditions: 48 h compound treatment, concentration 3 uM
T1 construct: endogenous in cells; host or cells: AsPC-1
Description: AsPC-1 cell line was used in this study. […] 400000 AsPC-1 cells per well in 1 mL culture medium were seed in the 12-well plate for 4 hours. Cells were treated with an appropriate dilution series of compounds. After 48 h compound treatment, medium was aspirated, the cells were washed with PBS, and then 30 μL of 1× protein lysis buffer (Cell Signaling Technology) containing protease inhibitors (Merck) and phosphatase inhibitors (Sigma) was added. The cells were lysed, and after centrifugation, the supernatants were quantified by BCA Protein assay Kit (Thermo Fisher). 4× loading Buffer (Thermo Fisher) was added to equal amounts of total protein from each sample and heated at 95° C. for 5 minutes. […] of cell lysates were loaded onto a 12% NuPAGE Bis-Tris Gel (Thermo Fisher), electro-transferred to NC membranes (Thermo Fisher), The membranes were blocked at least 1 hour with Blocking reagent (LI-COR), and then incubated overnight with anti-KRAS (LSBio, LS-C175665) or pERK (Cell Signaling Technology, 4370L) antibodies and as loading control anti-β-actin (Cell Signaling Technology, 3700S) or anti-GAPDH (Cell Signaling Technology, 97166S) at 4° C. with gentle shaking. The membranes were washed three times with TBST, and incubated at least 1 hour at room temperature with anti-mouse or anti-Rabbit secondary fluorescent antibody (Thermo Fisher, A32729; LI-COR, 926-32213). […]

[7] = KRAS G12D 0.5 nM, biotinylated probe 2 4 nM, read-out: KRAS G12D Probe Displacement Assay IC50
[8] = WT KRAS 3 nM, biotinylated probe 1 60 nM, read-out: KRAS WT Probe Displacement Assay IC50

| Structure (SMILES) | pIC50 [1, 7] | pIC50 [2, 8] | pIC50 [3] | pIC50 [4] | pIC50 [5] | KRAS G12D protein level decrease [6] | pIC50 [1] | pIC50 [2] |
| --- | --- | --- | --- | --- | --- | --- | --- | --- |
| Cc1cc(N)nc(-c2c(Cl)cc3c(N4CC5CCC(C4)N5)nc(O[C@@H](C)CN4CCCCC4)nc3c2F)c1C(F)(F)F [Example E35, 6-(4-(3,8-diazabicyclo[3.2.1]octan-3-yl)-6-chloro-8-fluoro-2-(((S)-1-(piperidin-1-yl)propan-2-yl)oxy)quinazolin-7-yl)-4-methyl-5-(trifluoromethyl)pyridin-2-amine] | 6.89 | 5.14 | 7.66 | 5.48 | 5.36 | – | – | – |
| CN1C[C@H](F)C[C@H]1COc1nc(N2C3CCC2CNC3)c2cc(Cl)c(-c3ccc(F)c4sc(N)nc34)c(F)c2n1 [Example E36, 4-(4-(3,8-diazabicyclo[3.2.1]octan-8-yl)-6-chloro-8-fluoro-2-(((2S,4R)-4-fluoro-1-methylpyrrolidin-2-yl)methoxy)quinazolin-7-yl)-7-fluorobenzo[d]thiazol-2-amine] | 8.43 | 6.92 | 8.00 | 6.62 | 6.15 | – | – | – |
| Cc1cc(N)nc(-c2c(Cl)cc3c(N4CC5CCC(C4)N5)nc(OC[C@@H]4C[C@@H](F)CN4C)nc3c2F)c1C(F)(F)F [Example E37, 6-(4-(3,8-diazabicyclo[3.2.1]octan-3-yl)-6-chloro-8-fluoro-2-(((2S,4R)-4-fluoro-1-methylpyrrolidin-2-yl)methoxy)quinazolin-7-yl)-4-methyl-5-(trifluoromethyl)pyridin-2-amine] | 7.80 | 6.15 | 7.89 | 6.16 | 6.09 | – | – | – |
| CC1CCCC(C)N1C[C@H](C)Oc1nc(N2CC3CCC(C2)N3)c2cc(Cl)c(-c3ccc(F)c4sc(N)nc34)c(F)c2n1 (some centres unmarked) [Example E38] | 7.49 | 5.85 | 7.92 | 6.09 | 5.88 | – | – | – |
| CN(C)C(=O)CCOc1nc(N2CC3CCC(C2)N3)c2cc(Cl)c(-c3ccc(F)c4sc(N)nc34)c(F)c2n1 [Example E40, 3-((7-(2-amino-7-fluorobenzo[d]thiazol-4-yl)-4-(3,8-diazabicyclo[3.2.1]octan-3-yl)-6-chloro-8-fluoroquinazolin-2-yl)oxy)-N,N-dimethylpropanamide] | 7.39 | 5.85 | 7.62 | 5.66 | < 5.00 | – | – | – |
| C[C@@H](CN1CCOCC1)Oc1nc(N2C3CCC2CNC3)c2cc(Cl)c(-c3ccc(F)c4sc(N)nc34)c(F)c2n1 [Example E41, 4-(4-(3,8-diazabicyclo[3.2.1]octan-8-yl)-6-chloro-8-fluoro-2-(((S)-1-morpholinopropan-2-yl)oxy)quinazolin-7-yl)-7-fluorobenzo[d]thiazol-2-amine] | 7.96 | 6.64 | 7.96 | 6.36 | 5.83 | – | – | – |
| C[C@@H](CN1CCC(F)C1)Oc1nc(N2C3CCC2CNC3)c2cc(Cl)c(-c3ccc(F)c4sc(N)nc34)c(F)c2n1 (stereo partly drawn) [Example E43, 4-(4-(3,8-diazabicyclo[3.2.1]octan-8-yl)-6-chloro-8-fluoro-2-(((2S)-1-(3-fluoropyrrolidin-1-yl)propan-2-yl)oxy)quinazolin-7-yl)-7-fluorobenzo[d]thiazol-2-amine] | 8.08 | 6.49 | 7.77 | 6.31 | 5.59 | – | – | – |
| Cc1ncsc1-c1ccc([C@H](C)NC(=O)[C@@H]2C[C@@H](O)CN2C(=O)[C@@H](NC(=O)COC2CCN(CC(C)Oc3nc(N4CC5CCC(C4)N5)c4cc(Cl)c(-c5ccc(F)c6sc(N)nc56)c(F)c4n3)CC2)C(C)(C)C)cc1 (stereo partly drawn) [Example E44, (2S,4R)-1-((2S)-2-(2-((1-(2-((7-(2-amino-7-fluorobenzo[d]thiazol-4-yl)-4-(3,8-diazabicyclo[3.2.1]octan-3-yl)-6-chloro-8-fluoroquinazolin-2-yl)oxy)propyl)piperidin-4-yl)oxy)acetamido)-3,3-dimethylbutanoyl)-4-hydroxy-N—((S)-1-(4-(4-methylthiazol-5-yl)phenyl)ethyl)pyrrolidine-2-carboxamide] | – | – | – | – | – | 70% | – | – |
| Cc1cc(N)nc(-c2c(Cl)cc3c(N4CC5CCC(C4)N5)nc(OC[C@@]45CCCN4C[C@H](F)C5)nc3c2F)c1C(F)(F)F [Example E49, 6-(4-(3,8-diazabicyclo[3.2.1]octan-3-yl)-6-chloro-8-fluoro-2-(((2R,7aS)-2-fluorotetrahydro-1H-pyrrolizin-7a(5H)-yl)methoxy)quinazolin-7-yl)-4-methyl-5-(trifluoromethyl)pyridin-2-amine] | – | – | 8.32 | 7.46 | 7.08 | – | 8.51 | 7.31 |
| Cc1cc(N)nc(-c2c(Cl)cc3c(N4CC5CCC(C4)N5)nc(OCC45CCCN4CC(F)C5)nc3c2F)c1C(F)(F)F (centres unmarked) [Example E50, 6-(4-(3,8-diazabicyclo[3.2.1]octan-3-yl)-6-chloro-8-fluoro-2-((2-fluorotetrahydro-1H-pyrrolizin-7a(5H)-yl)methoxy)quinazolin-7-yl)-4-methyl-5-(trifluoromethyl)pyridin-2-amine] | – | – | 8.12 | 6.85 | 6.51 | – | 8.40 | 6.80 |
| CN1C[C@H](F)C[C@H]1COc1nc(N2CC3CCC(C2)N3)c2cc(C(F)(F)F)c(-c3ccc(F)c4sc(N)nc34)c(F)c2n1 [Example E51, 4-(4-(3,8-diazabicyclo[3.2.1]octan-3-yl)-8-fluoro-2-(((2S,4R)-4-fluoro-1-methylpyrrolidin-2-yl)methoxy)-6-(trifluoromethyl)quinazolin-7-yl)-7-fluorobenzo[d]thiazol-2-amine] | 8.96 | 7.48 | 8.19 | 7.21 | 6.69 | – | – | – |
| CN1C[C@H](F)C[C@H]1COc1nc(N2CC3CCC(C2)N3)c2cc(Cl)c(-c3ccc(F)c4sc(N)nc34)c(Cl)c2n1 [Example E53, 4-(4-(3,8-diazabicyclo[3.2.1]octan-3-yl)-6,8-dichloro-2-(((2S,4R)-4-fluoro-1-methylpyrrolidin-2-yl)methoxy)quinazolin-7-yl)-7-fluorobenzo[d]thiazol-2-amine] | 8.92 | 7.33 | 8.29 | 6.88 | 6.42 | – | – | – |
| CC(F)CNC1C[C@H]2CC[C@@H]1N2c1nc(OC[C@@]23CCCN2C[C@H](F)C3)nc2c(F)c(-c3ccc(F)c4sc(N)nc34)c(C(F)(F)F)cc12 (stereo partly drawn) [Example E86, 7-fluoro-4-(8-fluoro-4-((1S,4R)-2-((2-fluoropropyl)amino)-7-azabicyclo[2.2.1]heptan-7-yl)-2-(((2R,7aS)-2-fluorotetrahydro-1H-pyrrolizin-7a(5H)-yl)methoxy)-6-(trifluoromethyl)quinazolin-7-yl)benzo[d]thiazol-2-amine] | 8.85 | 7.80 | – | – | 6.49 | – | – | – |
| Nc1nc2c(-c3c(OC(F)(F)F)cc4c(N5CC6CCC(C5)N6)nc(OC[C@@]56CCCN5C[C@H](F)C6)nc4c3F)ccc(F)c2s1 [Example E87, 4-(4-(3,8-diazabicyclo[3.2.1]octan-3-yl)-8-fluoro-2-(((2R,7aS)-2-fluorotetrahydro-1H-pyrrolizin-7a(5H)-yl)methoxy)-6-(trifluoromethoxy)quinazolin-7-yl)-7-fluorobenzo[d]thiazol-2-amine] | 9.62 | 7.60 | – | – | 6.95 | – | – | – |
| CN1C[C@H](F)CC1(C)COc1nc(N2CC3CCC(C2)N3)c2cc(Cl)c(-c3ccc(F)c4sc(N)nc34)c(F)c2n1 (stereo partly drawn) [Example E89, 4-(4-(3,8-diazabicyclo[3.2.1]octan-3-yl)-6-chloro-8-fluoro-2-(((4R)-4-fluoro-1,2-dimethylpyrrolidin-2-yl)methoxy)quinazolin-7-yl)-7-fluorobenzo[d]thiazol-2-amine] | 8.62 | 6.92 | – | – | 6.25 | – | – | – |
